Experimental data: PubChem BioAssay (NCI)
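Test compounds were applied to cells in 96-well plates for 48 hours at 5 doses. Definition used: TGI = concentration required for complete inhibition of growth.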

What was measured:
Assay in all cases: NCI anticancer screen, dose series, 48 h
[1] = test system: 786-0 renal
[2] = test system: A498 renal
[3] = test system: A549 NSCLC
[4] = test system: ACHN renal
[5] = test system: CAKI-1 renal
[6] = test system: CCRF-CEM leukemia
[7] = test system: COLO 205 colon
[8] = test system: DLD-1 colon
[9] = test system: DMS 114 small cell lung
[10] = test system: DMS 273 small cell lung
[11] = test system: EKVX NSCLC
[12] = test system: HCC-2998 colon
[13] = test system: HCT-116 colon
[14] = test system: HCT-15 colon
[15] = test system: HOP-18 NSCLC
[16] = test system: HOP-62 NSCLC
[17] = test system: HOP-92 NSCLC
[18] = test system: HT29 colon
[19] = test system: IGROV1 ovarian
[20] = test system: K-562 leukemia
[21] = test system: KM12 colon
[22] = test system: KM20L2 colon
[23] = test system: LOX IMVI melanoma
[24] = test system: LXFL 529 NSCLC
[25] = test system: M14 melanoma
[26] = test system: M19-MEL melanoma
[27] = test system: MALME-3M melanoma
[28] = test system: MOLT-4 leukemia
[29] = test system: NCI-H226 lung
[30] = test system: NCI-H23 lung
[31] = test system: NCI-H460 lung
[32] = test system: NCI-H522 lung
[33] = test system: OVCAR-3 ovarian
[34] = test system: OVCAR-4 ovarian
[35] = test system: OVCAR-5 ovarian
[36] = test system: OVCAR-8 ovarian
[37] = test system: RPMI-8226 leukemia
[38] = test system: RXF-631 renal
[39] = test system: SF-268 CNS
[40] = test system: SF-539 CNS
[41] = test system: SK-MEL-2 melanoma
[42] = test system: SK-MEL-28 melanoma
[43] = test system: SK-MEL-5 melanoma
[44] = test system: SK-OV-3 ovarian
[45] = test system: SN12C renal
[46] = test system: SNB-19 CNS
[47] = test system: SNB-75 CNS
[48] = test system: SNB-78 CNS
[49] = test system: SW-620 colon
[50] = test system: TK-10 renal
[51] = test system: U251 CNS
[52] = test system: UACC-257 melanoma
[53] = test system: UACC-62 melanoma
[54] = test system: UO-31 renal
[55] = test system: XF 498 CNS
[56] = test system: BT-549 breast
[57] = test system: DU-145 prostate
[58] = test system: HS 578T breast
[59] = test system: MCF7 breast
[60] = test system: MDA-MB-435
[61] = test system: MDA-N
[62] = test system: PC-3 prostate
[63] = test system: RXF 393 renal
[64] = test system: SF-295 CNS
[65] = test system: SR leukemia
[66] = test system: T-47D breast

## COc1cc2c(cc1OC)C(=O)Cc1ccc(OC)c(OC)c1CN(C)CC2
[1]
  TGI: > 100000 nM
[2]
  TGI: 48400 nM
[3]
  TGI: > 100000 nM
[4]
  TGI: > 100000 nM
[5]
  TGI: > 100000 nM
[6]
  TGI: > 100000 nM
[7]
  TGI: > 100000 nM
[8]
  TGI: > 100000 nM
[9]
  TGI: > 100000 nM
[10]
  TGI: > 100000 nM
[11]
  TGI: > 100000 nM
[12]
  TGI: > 100000 nM
[13]
  TGI: > 100000 nM
[14]
  TGI: > 100000 nM
[15]
  TGI: > 100000 nM
[16]
  TGI: > 100000 nM
[17]
  TGI: 98500 nM
[18]
  TGI: > 100000 nM
[19]
  TGI: > 100000 nM
[20]
  TGI: > 100000 nM
[21]
  TGI: > 100000 nM
[22]
  TGI: > 100000 nM
[23]
  TGI: > 100000 nM
[24]
  TGI: > 100000 nM
[25]
  TGI: > 100000 nM
[26]
  TGI: > 100000 nM
[27]
  TGI: > 100000 nM
[28]
  TGI: > 100000 nM
[29]
  TGI: > 100000 nM
[30]
  TGI: > 100000 nM
[31]
  TGI: 84400 nM
[32]
  TGI: > 100000 nM
[33]
  TGI: > 100000 nM
[34]
  TGI: > 100000 nM
[35]
  TGI: > 100000 nM
[36]
  TGI: > 100000 nM
[37]
  TGI: > 100000 nM
[38]
  TGI: > 100000 nM
[39]
  TGI: > 100000 nM
[40]
  TGI: > 100000 nM
[41]
  TGI: > 100000 nM
[42]
  TGI: > 100000 nM
[43]
  TGI: > 100000 nM
[44]
  TGI: > 100000 nM
[45]
  TGI: > 100000 nM
[46]
  TGI: > 100000 nM
[47]
  TGI: > 100000 nM
[48]
  TGI: > 100000 nM
[49]
  TGI: > 100000 nM
[50]
  TGI: > 100000 nM
[51]
  TGI: > 100000 nM
[52]
  TGI: > 100000 nM
[53]
  TGI: > 100000 nM
[54]
  TGI: > 100000 nM
[55]
  TGI: > 100000 nM

## COc1ccc2nc3ccccc3c(NCCCN(C)CCCl)c2c1
[1]
  TGI: 1070 nM
[2]
  TGI: 2420 nM
[3]
  TGI: 2420 nM
[4]
  TGI: 695 nM
[56]
  TGI: 2570 nM
[5]
  TGI: 1620 nM
[6]
  TGI: 1580 nM
[7]
  TGI: 1650 nM
[8]
  TGI: 3680 nM
[9]
  TGI: 1680 nM
[10]
  TGI: 1360 nM
[57]
  TGI: 1480 nM
[11]
  TGI: 3150 nM
[12]
  TGI: 1690 nM
[13]
  TGI: 1360 nM
[14]
  TGI: 8290 nM
[16]
  TGI: 3050 nM
[17]
  TGI: 1240 nM
[58]
  TGI: 3850 nM
[18]
  TGI: 2660 nM
[19]
  TGI: 2210 nM
[20]
  TGI: 2590 nM
[21]
  TGI: 2060 nM
[22]
  TGI: 2500 nM
[23]
  TGI: 1160 nM
[24]
  TGI: 1530 nM
[25]
  TGI: 2330 nM
[26]
  TGI: 1900 nM
[27]
  TGI: 1550 nM
[59]
  TGI: 1460 nM
[60]
  TGI: 1540 nM
[61]
  TGI: 2020 nM
[28]
  TGI: 888 nM
[29]
  TGI: 1620 nM
[30]
  TGI: 1200 nM
[31]
  TGI: 1070 nM
[32]
  TGI: 1150 nM
[33]
  TGI: 2070 nM
[34]
  TGI: 2070 nM
[35]
  TGI: 3400 nM
[36]
  TGI: 2020 nM
[62]
  TGI: 1600 nM
[37]
  TGI: 1120 nM
[63]
  TGI: 1450 nM
[38]
  TGI: 2150 nM
[39]
  TGI: 2750 nM
[64]
  TGI: 2440 nM
[40]
  TGI: 1290 nM
[41]
  TGI: 1810 nM
[42]
  TGI: 2010 nM
[43]
  TGI: 1590 nM
[44]
  TGI: 3340 nM
[45]
  TGI: 1550 nM
[46]
  TGI: 2060 nM
[47]
  TGI: 1470 nM
[48]
  TGI: 2270 nM
[65]
  TGI: 146 nM
[49]
  TGI: 1480 nM
[66]
  TGI: 467 nM
[50]
  TGI: 4080 nM
[51]
  TGI: 1710 nM
[52]
  TGI: 2240 nM
[53]
  TGI: 2050 nM
[54]
  TGI: 2670 nM
[55]
  TGI: 770 nM
